In brackets after ≈: the same amount, converted by molar mass. Read-outs that look alike come from different tables or passages of the source. No end group written: not given here.

From patent US10633420B2, “Antimicrobial peptides with wound healing activity” (priority 2016, dated 2020) come the findings set out here.

One data set relates to EGFR. Put plainly: Western blotting, EGFR phosphorylation. As to conditions: 0.2 μM AG1478, 10 minutes preincubation. In kind it is cell-based, human. As to the method: FIGS. 8A-8F indicate transactivation of the EGFR-STAT pathway by DRGN-1. Subconfluent keratinocytes were starved for 2 hours in HGKS-free medium and then stimulated with 10 μg/ml DRGN-1. For EGFR inhibition, cells were preincubated with 0.2 μM AG1478 for 10 minutes and subsequently treated with 10 μg/ml DRGN-1. The cells were harvested into lysis buffer at the indicated times. The phosphorylation of EGFR (p-EGFR) and STAT3 (p-STAT3) was analyzed by Western blotting (FIGS. 8A, 8B, 8D, and 8E). EGFR indicates total EGFR protein. FIGS. 8C and 8F are graphs plotting densitometric analyses of the expression of phosphoprotein relative to unphosphorylated proteins (pEGFR/EGFR, FIG. 8C; pSTAT3/STAT3, FIG. 8F).
Western blotting: Semifluent HEKa cells were serum-starved for 3 hours and then stimulated with 10 μg/ml DRGN-1 or HKGS for 5-30 minutes at 37° C. AG1478 (0.2 μM final) was added 10 minutes prior to DRGN-1 or HKGS treatment. Cells were lysed with 2×Laemmli sample buffer (Bio-Rad; Hercules, Calif.) containing 5 mM sodium fluoride and 2 mM sodium vanadate. Cell lysates were separated on a 4-12% SDS-PAGE gel and transferred to polyvinylidene difluoride membrane using an iBlot system (Invitrogen). The membranes were probed with antibodies specific to phospho-EGFR and EGFR (Cell Signaling). […]

In another data set the test system is HEKa cells. The experiment in a line: In vitro scratch wound closure assay. To be noted: 10 μg/ml DRGN-1; 20 μM mitomycin C or 0.2 μM AG1478 pretreatment. In kind it is cell-based, human. Here is the method:
In vitro scratch wound closure assays: In vitro wound closure was assayed in confluent cell monolayers of HEKa (Invitrogen) as described elsewhere (Kim et al., Amino Acids 46:2333-2343, 2014). Cells were seeded in 6-well plates (Corning, N.Y., USA) and grown until they reached confluence (48 hours) in EpiLife medium supplemented with HKGS. Cells were starved for 18 hours in EpiLife without HKGS and then scratched once vertically with a 200-μl pipette tip to create an artificial wound. For inhibitor studies, mitomycin C (20 μM final) and AG1478 (0.2 μM final) were added 90 minutes and 10 minutes prior to scratch generation. After being washed twice with PBS to remove cellular debris, cells were treated with DRGN-1, VK25 or LL-37. PBS was used as a negative control. Cells were photographed before peptide treatment and 7 hours and 24 hours after peptide treatment using an EVOS® Cell Imaging Systems (Invitrogen). The same image fields were captured and the wound areas were estimated using ImageJ software (Schneider et al., Nat Methods 9:671-675, 2012).

In a further data set the test system is P. aeruginosa ATCC 9027. As to conditions: ATCC 9027, 3 h, pH 7.4.
Data set [1] concerns P. aeruginosa PAO1 (pTDK-GFP).
Data set [2] relates to adult human epidermal keratinocytes (HEKa) cells. Put plainly: MTT assay. As to conditions: for Toxic effects on metabolically active HEKa cells (MTT): 12.5˜100 μg/ml. In kind it is cell-based. Here is the method:
MTT assay: The toxic effect of the peptides on adult human epidermal keratinocytes (HEKa) cells was evaluated using the MTT (3-(4,5-dimethylthiazolyl-2)-2,5-diphenyltetrazolium bromide) colorimetric method (Di Grazia et al., Antimicrob Agents Chemother 58:2520-2527, 2014). The color intensity of the MTT is directly proportional to the number of metabolically active cells. Keratinocytes were plated in triplicate wells of a 96-well plate, at 4×10^4 cells/well in EpiLife medium supplemented with HKGS. After overnight incubation at 37° C. in a 5% CO2 atmosphere, the plate was incubated with the peptides at different concentrations for 2 hours, and 0.5 mg/ml of MTT was added. After 4 hours of incubation, formazan crystals were dissolved by adding 100 μl of acidified isopropanol, and the absorbance of each well was measured at 570 nm using a microplate reader (PowerWave X; BioTek, Winooski, Vt.).

For data set [3], the system named is Gram-negative P. aeruginosa and E. coli and the Gram-positive S. aureus.
In another data set the test system is S. aureus ATCC25923. As to conditions: ATCC25923, 3 h, pH 7.4.
Another data set concerns sheep erythrocytes. The experiment in a line: Hemolytic activity. In kind it is cell-based. As to conditions: high concentration. Here is the method: FIG. 4 is a graph plotting hemolytic activity of CAMPs. A fresh sheep erythrocyte suspension was incubated with the indicated peptides. Hemoglobin release into the supernatant was measured by absorbance at 567 nm to indicate membrane damage of erythrocytes.

A further data set relates to E. coli O157:H7. To be noted: 3 hours, 10 mM sodium phosphate buffer pH 7.4.
The test system of data set [4] is internalized P. aeruginosa ATCC 9027 in HEKa keratinocytes. Put plainly: P. aeruginosa-infected HEKa keratinocytes. As to conditions: 30 μg/ml, 2 hours. It counts as cell-based, Pseudomonas aeruginosa. As to the method: Cell infection: Adult human epidermal keratinocytes HEKa (Invitrogen, Carlsbad, Calif.) cells were seeded in 24-well plates (Corning) and grown until they reached confluence (48 h) in EpiLife medium (Thermo Scientific) supplemented with human keratinocyte growth supplements (HKGS) containing 0.2% v/v bovine pituitary extract, 5 μg/ml bovine insulin, 0.18 μg/ml hydrocortisone, 5 μg/ml bovine transferrin, and 0.2 ng/ml human epidermal growth factor (EGF) (Invitrogen). The bacterial strain P. aeruginosa ATCC 9027 was grown in brain heart infusion (BHI) media at 37° C. with mild shaking and then harvested by centrifugation. Bacterial suspension (MOI 10) in EpiLife medium was co-incubated with keratinocytes for 2 hours at 37° C. and 5% CO2. The medium was aspirated and the cells were washed three times with PBS to remove non-adherent bacteria. In order to kill extracellular bacteria, cells were incubated for 1 hour in EpiLife without HKGS supplemented with 100 μg/ml of gentamicin. The medium was then aspirated and the infected cells were washed three times, as described above. Three hundred microliters of peptide solution (30 μg/ml) in EpiLife without HKGS was added to each well and the plate was incubated for 2 hours at 37° C. and 5% CO2. […] The CFU were counted after 24 hours at 37° C.

In a further data set the test system is F. novicida U112. To be noted: 3 hours, 10 mM sodium phosphate buffer pH 7.4.
In data set [5] the test system is S. aureus SH1000 (pAH9-RFP). To be noted: 3 hours, 10 mM sodium phosphate buffer pH 7.4.
The subject of another data set is P. aeruginosa PAO1. To be noted: PAO1, 3 h, pH 7.4.
Setting [6] is: 3 hours, 10 mM sodium phosphate buffer pH 7.4.

As for `COc1cc2ncnc(Nc3cccc(Cl)c3)c2cc1OC` [AG1478], the “Effect on DRGN-1-induced EGFR phosphorylation” value in the data set on EGFR is “not observed in AG1478-treated cells”. In the data set on HEKa cells, the “Effect on keratinocyte migration induced by DRGN-1” value is recorded as “prevented cell migration”.

With `CC[C@H](C)[C@H](NC(=O)[C@H](CCCCN)NC(=O)[C@H](CCC(=O)O)NC(=O)[C@H](CCCCN)NC(=O)[C@H](CO)NC(=O)[C@H](CCCCN)NC(=O)[C@H](CCCNC(=N)N)NC(=O)[C@H](Cc1ccccc1)NC(=O)[C@H](Cc1ccccc1)NC(=O)[C@H](CC(=O)O)NC(=O)CNC(=O)[C@H](CC(C)C)NC(=O)[C@@H](N)CC(C)C)C(=O)NCC(=O)N[C@@H](CCCCN)C(=O)N[C@@H](CCC(=O)O)C(=O)N[C@@H](Cc1ccccc1)C(=O)N[C@@H](CCCCN)C(=O)N[C@@H](CCCNC(=N)N)C(=O)N[C@H](C(=O)N[C@H](C(=O)N[C@@H](CCC(N)=O)C(=O)N[C@@H](CCCNC(=N)N)C(=O)N[C@H](C(=O)N[C@@H](CCCCN)C(=O)N[C@@H](CC(=O)O)C(=O)N[C@@H](Cc1ccccc1)C(=O)N[C@@H](CC(C)C)C(=O)N[C@@H](CCCNC(=N)N)C(=O)N[C@@H](CC(N)=O)C(=O)N[C@@H](CC(C)C)C(=O)N[C@H](C(=O)N1CCC[C@H]1C(=O)N[C@@H](CCCNC(=N)N)C(=O)N[C@H](C(=O)N[C@@H](CCC(=O)O)C(=O)N[C@@H](CO)C(=O)O)[C@@H](C)O)C(C)C)[C@@H](C)CC)C(C)C)[C@@H](C)CC` [LL-37, reference compound], the EC50 in the data set with P. aeruginosa ATCC 9027 was 1.08 µg/mL (≈ 0.24 µM); in [1] (PAO1, 3 h, pH 7.4) it was 2.69 µg/mL (≈ 0.599 µM); in data set [3], 50 to 600 nM. The “HEKa cell viability (MTT)” value in [2] (50˜100 μg/ml) is “significant decrease”. Besides, the “EC50, range over strains” value in data set [3] fell in the range of 0.24 to 2.7 µg/mL.

As to `CO[C@@]12[C@H](COC(N)=O)C3=C(C(=O)C(C)=C(N)C3=O)N1C[C@@H]1N[C@@H]12` [mitomycin C], in the data set with HEKa cells, the “Effect on keratinocyte migration induced by DRGN-1” value is “strongly inhibited”.

PSKKTKPVKPKKVA [DRGN-1, PSKKTKPVKPKKVA]: the EC50 in the data set on S. aureus ATCC25923 was 4.04 µg/mL; in the data set on P. aeruginosa ATCC 9027 it was 4.39 µg/mL; in the data set with E. coli O157:H7, 3.48 µg/mL; in data set [1] (setting [6]), 7.10 µg/mL; in the data set with F. novicida U112 it was greater than 100 µg/mL; in [3], 500 to 4620 nM. Further, the EC50 in data set [5] came to 0.77 µg/mL; in the data set with P. aeruginosa PAO1, 6.85 µg/mL. Moreover, the “Toxicity against erythrocytes (hemolysis)” value with sheep erythrocytes is listed as “did not show any toxicity”. The “Killing of internalized bacteria” value in [4] worked out at 36%. Also, the “Toxic effects on metabolically active HEKa cells (MTT)” value in [2] is “devoid of toxic effects”. Also, the “EC50, range over strains” value in data set [3] lay in the range of 0.77 to 7.1 µg/mL.

Regarding SPKKTKPVKPKKVA [VK25, SPKKTKPVKPKKVA], the EC50 (in the data set with S. aureus ATCC25923; in the data set on P. aeruginosa ATCC 9027; in the data set with E. coli O157:H7; in [1] (setting [6]); in the data set on F. novicida U112; in [5]) was greater than 100 µg/mL throughout. In addition, in the data set with P. aeruginosa PAO1, the EC50 is greater than 100 µg/mL. In addition, in data set [2], the “Toxic effects on metabolically active HEKa cells (MTT)” value is “devoid of toxic effects”. In data set [3], the “EC50, range over strains” value is greater than 100 µg/mL.
